Laboratory results taken from patent US8580847B2, “Antrocin containing pharmaceutical compositions for inhibiting cancer cells” (Chaoyang University of Technology, priority 2010, dated 2013).

How the values were obtained:
[1] = system: MDA-MB-231 cells; assay: Cell morphology studies by phase microscopy; assay type: cell-based, human; settings: 48 hr incubation, various concentration, phase-contrast microscope (FIG. 4)
Protocol: After treatment with different dose of antrocin for 48 hr, the MDA-MB-231 cells, cultured on glass coverslips, were washed three times with PBS, fixed with 3% paraformaldehyde for 10 min at room temperature, and then washed in PBS again, and the morphological changes were observed. Cell morphology was then observed by phase microscopy.

[2] = system: non-tumorgenic breast epithelial MCF-10A cells; assay: SRB assay, non-tumorgenic MCF-10A cells; assay type: cell-based, human; settings: SRB assay (FIG. 2)
Protocol: (§1) MCF-7 and MDA-MB-231 breast tumor cell lines came from a pleural effusion of patients with invasive breast carcinoma. The MCF-10A cell line is a non-tumorigenic epithelial cell line. All three human cell lines were provided by the American Type Culture Collection (ATCC). In the present invention, MDA-MB-231 cells were grown in Dulbecco's Modified Eagle's Medium (DMEM) media with 10% FBS, 2 mM glutamine, 100 μg/ml streptomycin in a 37° C. humidified atmosphere with CO2. MCF-7 were cultured in DMEM media supplemented with 2 mM L-glutamine, 100 μg/ml streptomycin, 10% fetal bovine serum, 0.04 UI/ml insulin in a humidified atmosphere at 37° C. containing 5% CO2. MCF10A cells were maintained in DMEM containing 5% horse serum, 2 mM L-glutamine, 20 μg/ml gentamycin, 20 ng/ml epidermal growth factor, 100 ng/ml cholera toxin, 0.25 UI/ml insulin and 0.5 μg/ml hydrocortisone held at 37° C. with 5% CO2.
(§2) Antrocin was dissolved in DMSO at a concentration of 10 mM and was stored in a dark-colored bottle at −20° C. as a stock solution. The stock was diluted to the required concentration with serum-free medium immediately before use. […]
(§3) Briefly, three breast cancer cells (MDA-MB-231, MCF-7 & MCF-10A) were seeded into 96-well plates in growth medium at 3000 cells/well for 24 h. […] Optical densities were read on a microplate reader (Molecular Devices, Sunnyvale, Calif.) at 562 nm.

[3] = system: normal foreskins fibroblast HS68 cells; assay: SRB assay, normal HS68 cells; assay type: cell-based, human; settings: SRB assay (FIG. 2)
Protocol: (§4) Briefly, three breast cancer cells (MDA-MB-231, MCF-7 & MCF-10A) were seeded into 96-well plates in growth medium at 3000 cells/well for 24 h. Then, the cells were treated with antrocin at various concentrations (0, 0.5, 1, 3, 5 and 10 μM) for various periods of time. After the exposure period, the cells were fixed with TCA for 1 hour and stained with 100 μL of 0.4% (w/v) SRB for 10 minutes at room temperature. The bound dye was solubilized in 20 mM Tris base (100 μL/well) for 5 minutes on a shaker. Optical densities were read on a microplate reader (Molecular Devices, Sunnyvale, Calif.) at 562 nm.
(§5) The anti-proliferative effects of antrocin were assessed on human cancer cell lines, using the SRB assay, with normal foreskins fibroblast HS68 cells and non-tumorgenic breast epithelial MCF-10A cells as controls.

[4] = system: MDA-MB-231 cells; assay: Cell cycle analysis by PI flow cytometry; assay type: cell-based, human; settings: 48 hr, MDA-MB-231 (FIG. 5)
Protocol: A total of 2×10^5 MDA-MB-231 cells/dish were seeded onto each 60 mm dish and incubated for 24 h. Various concentration of antrocin were added to the culture media, and the cells were incubated for an additional 48 hr. Cells were harvested and fixed in cold 75% ethanol at 4° C. for 16 h and incubated with 20 μg/ml RNase A at 37° C. for 30 min and then with 40 μg/ml propidium iodide (PI) at 4° C. for 30 min. Samples were immediately analyzed with a FACSCalibur flow cytometer (Becton, Dickinson and Co., San Jose, Calif). Approximately 10,000 counts were made for each sample. The percentage distributions of apoptotic cells were calculated by CellQuest™ software (Becton, Dickinson and Co., San Jose, Calif.).

[5] = system: MDA-MB-231 human breast cancer cells; assay: SRB cytotoxicity assay, MDA-MB-231; assay type: cell-based
Protocol: as §1, §2, §3

[6] = system: MCF-7 human breast carcinoma cells; assay: SRB cytotoxicity assay, MCF-7; assay type: cell-based
Protocol: as §1, §2, §3

[7] = system: human cancer cell lines (HT-29, HCT116, Huh7, A549, MCF7, MDA-MB-231); assay: SRB anti-proliferative assay on human cancer cell lines; assay type: cell-based
Protocol: Antrocin was dissolved in DMSO at a concentration of 10 mM and was stored in a dark-colored bottle at −20° C. as a stock solution. The stock was diluted to the required concentration with serum-free medium immediately before use. Before treatment with antrocin, the medium was removed when cells were about 70% confluent, the cells were starved overnight in serum-free medium and then exposed to antrocin at different concentrations (0-10 μM) and for different periods of time (0-48 h).
as §4, §5

Compound: C=C1CCC2C(C)(C)CCCC23C(=O)OCC13 (centres unmarked) [antrocin]
- morphological alterations [1]: cell shrinkage, membrane blebbing, apoptotic body formation
- antiproliferative effect / growth inhibition on MCF-10A cells [2]: no antiproliferative effect
- antiproliferative effect / growth inhibition on MCF-10A cells ([2]; listed as Antrocin): no significant inhibition
- antiproliferative effect on HS68 cells [3]: no antiproliferative effect
- progression to apoptosis (apoptotic cells) ([4]; 10 μM antrocin): 58.3%
- cell cycle distribution ([4]; different dose): accumulated progressively in subG1 phase
- cell growth inhibition compared with doxorubicin or cisplatin ([5]; MDA-MB-231, 48 hr treatment, same dosage (FIG. 3)): more potent than doxorubicin or cisplatin
- MDA-MB-231 cell growth ([5]; antrocin concentration of 0.5 μM): significantly inhibited
- cell growth inhibition, MDA-MB-231 compared with MCF-7 [6]: more effective in MDA-MB-231 cells in comparison with MCF-7
- inhibition activity to cancer cell lines ([7]; HT-29, HCT116, Huh7, A549, MCF7, MDA-MB-231): high inhibition activity
- growth of cancer cells ([7]; SRB assay, all cancer cells tested (FIG. 1)): inhibited in a concentration-dependent manner
